Experimental data published in patent US6274715A, “Tricyclic erythromycin derivatives” (priority 1997, dated 2001).
Converted amounts (≈) assume the structure as drawn.

Legend:
Type in all cases: cell-based
[1] = tested on: STAPHYLOCOCCUS AUREUS ATCC 6538P; experiment: In vitro antibacterial activity, MIC, BHI agar dilution; settings: S. aureus ATCC 6538P, 35-37° C., 20 to 24 hours, unit assumed
[2] = tested on: STAPHYLOCOCCUS AUREUS A5177; experiment: as above
[3] = tested on: STAPHYLOCOCCUS AUREUS A-5278; experiment: as above; settings: S. aureus A-5278, unit assumed
[4] = tested on: STAPHYLOCOCCUS AUREUS CMX 642A; experiment: as above; settings: S. aureus CMX 642A, unit assumed
[5] = tested on: STAPHYLOCOCCUS AUREUS NCTC10649M; experiment: as above; settings: S. aureus NCTC10649M, unit assumed
[6] = tested on: STAPHYLOCOCCUS AUREUS CMX 553; experiment: as above; settings: S. aureus CMX 553, unit assumed
[7] = tested on: STAPHYLOCOCCUS AUREUS 1775; experiment: as above; settings: S. aureus 1775, unit assumed
[8] = tested on: STAPHYLOCOCCUS EPIDERMIDIS 3519; settings: S. epidermidis 3519; BHI agar; unit assumed
[9] = tested on: EN[…] ATCC 8043; experiment: In vitro antibacterial activity, MIC, BHI agar dilution; settings: E. faecium ATCC 8043, unit assumed
In short: (§1)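 Agar dilution in BHI: plates inoculated with 1:100 dilutions of organisms (1:10 for Micrococcus and Streptococcus), incubated 20-24 h at 35-37° C, then inspected for the lowest inhibitory concentration against a drug-free growth control.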

[10] = tested on: M[…] ATCC 4698; experiment: as above; settings: M. luteus ATCC 4698, unit assumed
In short: as §1

[11] = tested on: M[…] ATCC 9341; experiment: as above; settings: M. luteus ATCC 9341, unit assumed
In short: as §1

[12] = tested on: STR[…] 508; experiment: as above; settings: S. agalactiae CMX 508, unit assumed
In short: as §1

[13] = tested on: STREPTOCOCCUS BOVIS A-5169; experiment: as above; settings: S. bovis A-5169, unit assumed
[14] = tested on: STREPTOCOCCUS PYOGENES EES61; experiment: as above; settings: S. pyogenes EES61, unit assumed
[15] = tested on: STREPTOCOCCUS PYOGENES 930; experiment: as above; settings: S. pyogenes 930, unit assumed
[16] = tested on: ESCHERICHIA COLI JUHL; settings: E. coli JUHL; BHI agar; unit assumed
[17] = tested on: ESCHERICHIA COLI SS; experiment: In vitro antibacterial activity, MIC, BHI agar dilution; settings: E. coli SS, unit assumed
[18] = tested on: ESCHERICHIA COLI DC-2; experiment: as above; settings: E. coli DC-2, unit assumed
[19] = tested on: ESCHERICHIA COLI H560; experiment: as above; settings: E. coli H560, unit assumed
[20] = tested on: ESCHERICHIA COLI KNK 437; settings: E. coli KNK 437; BHI agar; unit assumed
[21] = tested on: ENTEROBACTER AEROGENES ATCC 13048; experiment: In vitro antibacterial activity, MIC, BHI agar dilution; settings: E. aerogenes ATCC 13048, unit assumed
[22] = tested on: KLEBSIELLA PNEUMONIAE ATCC 8045; experiment: as above; settings: K. pneumoniae ATCC 8045, unit assumed
[23] = tested on: PROVIDENCIA STUARTII CMX 640; settings: P. stuartii CMX 640; BHI agar; unit assumed
[24] = tested on: PSEUDOMONAS AERUGINOSA BMH10; experiment: In vitro antibacterial activity, MIC, BHI agar dilution; settings: P. aeruginosa BMH10, unit assumed
[25] = tested on: PSEUDOMONAS AERUGINOSA 5007; experiment: as above; settings: P. aeruginosa 5007, unit assumed
[26] = tested on: PSEUDOMONAS AERUGINOSA K799/WT; experiment: as above; settings: P. aeruginosa K799/WT, unit assumed
[27] = tested on: PSEUDOMONAS AERUGINOSA K799/61; experiment: as above; settings: P. aeruginosa K799/61, unit assumed
[28] = tested on: PSEUDOMONAS CEPACIA 296I; experiment: as above; settings: P. cepacia 296I, unit assumed
[29] = tested on: ACINETOBACTER CALCOACETICUS CMX 669; experiment: as above; settings: A. calcoaceticus CMX 669, unit assumed
[30] = tested on: PSEUDOMONAS AERUGINOSA DPHD-5263; experiment: as above; settings: P. aeruginosa DPHD-5263, unit assumed
[31] = tested on: PSEUDOMONAS AERUGINOSA DPHD-2862; experiment: as above; settings: P. aeruginosa DPHD-2862, unit assumed
[32] = tested on: CANDIDA ALBICANS CCH 442; experiment: as above; settings: C. albicans CCH 442, unit assumed
[33] = tested on: MYCOBACTERIUM SMEGMATIS ATCC 114; experiment: as above; settings: M. smegmatis ATCC 114, unit assumed
[34] = tested on: STREPTOCOCCUS PYOGENES PIU 2548; experiment: as above; settings: S. pyogenes PIU 2548, unit assumed

Work on CCC1OC(=O)C(C)C(=O)C(C)C(OC2OC(C)CC(N(C)C)C2O)C(C)(OC)CC(C)C2=NC(CN)CN3C(=O)OC1(C)C3C2C (stereo not drawn) [Example 16] yielded an MIC [1] of 0.2 µg/mL (≈ 0.3 µM), an MIC ([2]; S. aureus A5177, unit assumed) of 0.39 µg/mL (≈ 0.585 µM) and an MIC [3] of over 100 µg/mL. It also gave an MIC [4] of 0.2 µg/mL (≈ 0.3 µM), an MIC [5] of 0.2 µg/mL (≈ 0.3 µM) and an MIC [6] of 0.39 µg/mL (≈ 0.585 µM). For the same compound, the MIC [7] was over 100 µg/mL, the MIC [8] was 0.2 µg/mL (≈ 0.3 µM) and the MIC [9] was 0.2 µg/mL (≈ 0.3 µM). It also gave an MIC [10] of 0.2 µg/mL (≈ 0.3 µM), an MIC [11] of 0.02 µg/mL (≈ 0.03 µM) and an MIC [12] of 0.05 µg/mL (≈ 0.075 µM). For the same compound, the MIC [13] was 0.02 µg/mL (≈ 0.03 µM), the MIC [14] was 0.01 µg/mL (≈ 0.015 µM) and the MIC [15] was over 100 µg/mL. For the same compound, the MIC [16] was 12.5 µg/mL (≈ 18.7 µM), the MIC [17] was 0.1 µg/mL (≈ 0.15 µM) and the MIC [18] was 12.5 µg/mL (≈ 18.7 µM). It also gave an MIC [19] of 6.2 µg/mL (≈ 9.3 µM), an MIC [20] of 12.5 µg/mL (≈ 18.7 µM) and an MIC [21] of 12.5 µg/mL (≈ 18.7 µM). For the same compound, the MIC [22] was 12.5 µg/mL (≈ 18.7 µM), the MIC [23] was over 100 µg/mL and the MIC [24] was 50 µg/mL (≈ 75 µM). It also gave an MIC [25] of over 100 µg/mL, an MIC [26] of 100 µg/mL (≈ 150 µM) and an MIC [27] of 0.39 µg/mL (≈ 0.585 µM). The MIC [28] was over 100 µg/mL, the MIC [29] was 12.5 µg/mL (≈ 18.7 µM) and the MIC [30] was over 100 µg/mL. The MIC [31] was over 100 µg/mL, the MIC [32] was over 100 µg/mL and the MIC [33] was 1.56 µg/mL (≈ 2.34 µM).

CC[C@H]1OC(=O)[C@H](C)C(=O)[C@H](C)[C@@H](O[C@@H]2O[C@H](C)C[C@H](N(C)C)[C@H]2O)[C@](C)(OC)C[C@@H](C)C2=N[C@H](COCc3ccc(C#N)cc3)CN3C(=O)O[C@@]1(C)[C@H]3[C@H]2C [Example 74] was tested, and the MIC [1] was 0.2 µg/mL (≈ 0.255 µM), the MIC ([2]; S. aureus A5177) was 0.1 µg/mL (≈ 0.128 µM) and the MIC [3] was over 100 µg/mL. The MIC [4] was 0.2 µg/mL (≈ 0.255 µM), the MIC [5] was 0.1 µg/mL (≈ 0.128 µM) and the MIC [6] was 0.1 µg/mL (≈ 0.128 µM). The MIC [7] was over 100 µg/mL, the MIC [8] was 0.2 µg/mL (≈ 0.255 µM) and the MIC [9] was 0.02 µg/mL (≈ 0.0255 µM). The MIC [10] was 0.39 µg/mL (≈ 0.498 µM), the MIC [11] was 0.02 µg/mL (≈ 0.0255 µM) and the MIC [12] was 0.02 µg/mL (≈ 0.0255 µM). It also gave an MIC [13] of at most 0.005 µg/mL, an MIC [14] of at most 0.005 µg/mL and an MIC [15] of over 100 µg/mL. The MIC [16] was over 100 µg/mL, the MIC [17] was 0.39 µg/mL (≈ 0.498 µM) and the MIC [18] was 100 µg/mL (≈ 128 µM). It also gave an MIC [19] of 100 µg/mL (≈ 128 µM), an MIC [20] of over 100 µg/mL and an MIC [21] of over 100 µg/mL. The MIC [22] was over 100 µg/mL, the MIC [23] was over 100 µg/mL and the MIC [24] was over 100 µg/mL. The MIC [25] was over 100 µg/mL, the MIC [26] was 100 µg/mL (≈ 128 µM) and the MIC [27] was 3.1 µg/mL (≈ 3.96 µM). It also gave an MIC [28] of 50 µg/mL (≈ 63.9 µM), an MIC [29] of 50 µg/mL (≈ 63.9 µM) and an MIC [30] of over 100 µg/mL. For the same compound, the MIC [31] was over 100 µg/mL, the MIC [32] was over 100 µg/mL and the MIC [33] was 0.39 µg/mL (≈ 0.498 µM).

CC[C@H]1OC(=O)[C@H](C)C(=O)[C@H](C)[C@@H](O[C@@H]2O[C@H](C)C[C@H](N(C)C)[C@H]2O)[C@](C)(OC)C[C@@H](C)C2=N[C@H](COCc3ccccn3)CN3C(=O)O[C@@]1(C)[C@H]3[C@H]2C [Example 81] showed an MIC [1] of 0.39 µg/mL (≈ 0.514 µM), an MIC ([2]; S. aureus A5177, unit assumed) of 0.39 µg/mL (≈ 0.514 µM) and an MIC [3] of over 100 µg/mL. The MIC [4] was 0.39 µg/mL (≈ 0.514 µM), the MIC [5] was 0.39 µg/mL (≈ 0.514 µM) and the MIC [6] was 0.39 µg/mL (≈ 0.514 µM). For the same compound, the MIC [7] was over 100 µg/mL, the MIC [8] was 0.39 µg/mL (≈ 0.514 µM) and the MIC [9] was 0.05 µg/mL (≈ 0.0659 µM). For the same compound, the MIC [10] was 0.39 µg/mL (≈ 0.514 µM), the MIC [11] was 0.05 µg/mL (≈ 0.0659 µM) and the MIC [12] was 0.05 µg/mL (≈ 0.0659 µM). For the same compound, the MIC [13] was 0.05 µg/mL (≈ 0.0659 µM), the MIC [14] was 0.05 µg/mL (≈ 0.0659 µM) and the MIC [15] was over 100 µg/mL. It also gave an MIC [34] of 0.39 µg/mL (≈ 0.514 µM), an MIC [16] of over 100 µg/mL and an MIC [17] of 1.56 µg/mL (≈ 2.06 µM). For the same compound, the MIC [18] was over 100 µg/mL, the MIC [19] was 50 µg/mL (≈ 65.9 µM) and the MIC [20] was over 100 µg/mL. The MIC [21] was over 100 µg/mL, the MIC [23] was over 100 µg/mL and the MIC [24] was over 100 µg/mL. For the same compound, the MIC [25] was over 100 µg/mL, the MIC [26] was over 100 µg/mL and the MIC [27] was 3.1 µg/mL (≈ 4.08 µM). For the same compound, the MIC [28] was over 100 µg/mL, the MIC [29] was 100 µg/mL (≈ 132 µM) and the MIC [30] was over 100 µg/mL. For the same compound, the MIC [31] was over 100 µg/mL, the MIC [32] was over 100 µg/mL and the MIC [33] was 3.1 µg/mL (≈ 4.08 µM).
